Assay results taken from patent US20120294859A1, “CANCER STEM CELL MARKERS AND USES THEREOF” (GLYCOTOPE GMBH, priority 2010, published 2012).

How the values were obtained:
[1] = system: MDA231 breast adenocarcinoma cells; assay: Flow cytometry of CD44/CD176 expression after 4-OHT treatment; type: cell-based, human
Procedure: (§1) Cell suspensions of cell lines were prepared at 1×10^6 cells/100 μl. Cells were washed twice with PBS containing 2% BSA and incubated with primary antibodies at appropriate dilutions at 4° C. for 20 min, followed by anti-IgG-Cy3 (γ chain-specific) and anti-IgM-FITC (μ chain-specific) at appropriate concentrations at 4° C. for 20 min. Flow cytometry was performed with a FACScan (BD Biosciences, Franklin Lakes, N.J., USA). Collected data from 10,000 cells and WinMDI software were used in the analysis of FCS […]. For 4-hydroxytamoxifen treatment, MDA231, MDA435 and MCF-7 breast adenocarcinoma cell lines were exposed to 4-OHT (#H6278, Sigma) at a final concentration of 20 nM for 24 h. Then flow cytometry analysis was performed as described above.

[2] = system: MDA435 breast adenocarcinoma cells; assay: as above; type: cell-based, human; conditions: for change in percentage of CD44^+/CD176^+ cells after treatment: MDA435, 24 h, 20 nM
Procedure: as §1

[3] = system: MCF-7 breast adenocarcinoma cells; assay: as above; type: cell-based, human
Procedure: as §1

[4] = system: MCF-7 breast adenocarcinoma cells; assay: Flow cytometry of CD44/CD173/CD174 expression after 4-OHT treatment; type: cell-based; conditions: MCF-7, 20 nM for 24 h, P>0.05
Procedure: (§2) Cell suspensions from established cell lines were prepared at a density of 1×10^6 cells/100 μl. They were washed twice with phosphate buffered saline (PBS) containing 2% BSA and incubated with primary antibodies at 4° for 20 min, followed by anti IgG-Cy3 (γ chain-specific) and anti IgM-FITC (μ chain-specific) in appropriate concentrations at 4° for 20 min. Flow cytometry was performed on a FACScan (BD Biosciences, Franklin Lakes, N.J., USA). Collected data from 10,000 cells and WinMDI software were used for the analysis of FACS […]. For 4-hydroxytamoxifen treatment, MDA-MB-231, MDA-MB-435 and MCF-7 breast adenocarcinoma cell lines were exposed to 4-OHT (#H6278, Sigma) at a final concentration of 20 nM for 24 h. Then flow cytometry analysis was performed as described above.

[5] = system: MDA-MB-231 breast adenocarcinoma cells; assay: as above; type: cell-based; conditions: MDA231, 20 nM for 24 h, P<0.05
Procedure: as §2

[6] = system: MDA-MB-435 breast adenocarcinoma cells; assay: as above; type: cell-based; conditions: MDA-MB-435, 20 nM for 24 h, P>0.05
Procedure: as §2

[7] = MDA231, 4-OHT 20 nM for 24 h, percent of the positive cells
[8] = MDA435, 4-OHT 20 nM for 24 h, percent of the positive cells
[9] = MCF-7, 4-OHT 20 nM for 24 h, percent of the positive cells

CC/C(=C(\c1ccc(O)cc1)c1ccc(OCCN(C)C)cc1)c1ccccc1 [4-OHT, 4-hydroxytamoxifen]
CD44^+/C176^+ cells [1, 7]: ~2%
CD44^+/CD176^− cells [1, 7]: ~1%
CD44^−/CD176^+ cells [1, 7]: ~13%
CD44^−/CD176^− cells [1, 7]: >60%
change in number of CD44^+/CD176^+ co-expressing cells after treatment ([1]; MDA231, 24 h, 20 nM): no significantly increased number
CD44^+/C176^+ cells [2, 8]: ~12%
CD44^+/CD176^− cells [2, 8]: ~50%
CD44^−/CD176^+ cells [2, 8]: ~7%
CD44^−/CD176^− cells [2, 8]: ~31%
change in percentage of CD44^+/CD176^+ cells after treatment [2]: increased
change in percentage of CD44^+/CD176^+ cells after treatment ([2]; listed as tamoxifen): enhanced
CD44^+/C176^+ cells [3, 9]: ~8%
CD44^+/CD176^− cells [3, 9]: ~20%
CD44^−/CD176^+ cells [3, 9]: ~8%
CD44^−/CD176^− cells [3, 9]: >60%
change in number of CD44^+/CD176^+ co-expressing cells after treatment ([3]; MCF-7, 24 h, 20 nM): no significantly increased number
change in percentage of CD44^+CD173^+ cells after treatment [4]: not
change in percentage of CD44^+CD174^+ cells after treatment [4]: not
change in percentage of CD44^+CD173^+ cells after treatment [5]: increased
change in percentage of CD44^+CD174^+ cells after treatment [5]: increased
change in percentage of CD44^+CD173^+ cells after treatment [6]: not
change in percentage of CD44^+CD174^+ cells after treatment [6]: not
